Laboratory results reported in patent US12404232B2, “Compounds and compositions for intracellular delivery of therapeutic agents” (ModernaTX, Inc., priority 2015, dated 2025).

Tests used:
mice [1] = experiment: Cytokine induction (IL-6, IP-10) in mice after intravenous administration; format: in vivo; set-up: IL-6 / IP-10: unit not given here; conditions: 0.5 mpk, 6 hours
Text: The introduction of foreign material into a mammalian body induces an innate immune response that promotes cytokine production. Such immune responses to, for example, nanoparticle compositions including therapeutic and/or prophylactics, are undesirable. The induction of certain cytokines is thus measured to evaluate the […] of nanoparticle compositions. The concentrations of various cytokines in mice upon intravenous administration of nanoparticle compositions presented in Table 1A at a dosage of 0.5 mpk was measured at 6 hours. The standard MC3 formulation and a PBS control were also tested. As is evident in Table 7, IL-6 induction was highest for compositions including Compounds 1, 3, 9, 19, and 26, while IP-10 induction was highest for compositions including Compounds 3, 4, 7, 20, and 26. IL-6 induction was lowest for compositions including Compounds 4, 11, 12, and 28. IP-10 induction was lowest for compositions including Compounds 10, 11, 12, 13, 15, 17, and 18.
The expression of hEPO and cytokine induction in mice intravenously administered a nanoparticle composition at a dose of 0.5 mpk were measured at 3, 6, and 24 hours. […] The expression of hEPO in mice intramuscularly administered a nanoparticle composition from Table 1B at a dose of 0.01 mpk were measured at 3, 6, and 24 hours. […] (see also FIG. 9.)

[2] = Particle size and polydispersity index of nanoparticle compositions (Zetasizer Nano ZS); format: physicochemical; conditions: for Size (nm): nanoparticle composition lipid:DSPC:cholesterol:PEG-DMG 50:10:38.5:1.5 mol %, mRNA encoding Luc or hEPO (Table 1A); for PDI: nanoparticle composition 50:10:38.5:1.5 mol % (Table 1A)
Text: Nanoparticle compositions may be characterized by a variety of methods. For example, microscopy (e.g., transmission electron microscopy or scanning electron microscopy) may be used to examine the morphology and size distribution of a nanoparticle composition. Dynamic light scattering or potentiometry (e.g., potentiometric titrations) may be used to measure zeta potentials. Dynamic light scattering may also be utilized to determine particle sizes. Instruments such as the Zetasizer Nano ZS (Malvern Instruments Ltd, Malvern, Worcestershire, UK) may also be used to measure multiple characteristics of a nanoparticle composition, such as particle size, polydispersity index, and zeta potential.
A Zetasizer Nano ZS (Malvern Instruments Ltd, Malvern, Worcestershire, UK) can be used to determine the particle size, the polydispersity index (PDI) and the zeta potential of the nanoparticle compositions in 1×PBS in determining particle size and 15 mM PBS in determining zeta potential.
Initial studies were performed to compare the delivery efficiency of nanoparticle compositions including various compounds according to Formula (I), (IA), (II), (IIa), (IIb), (IIc), (IId) or (IIe). The cationic lipid MC3 is a current standard in the art. Accordingly, the standard MC3 formulation including about 50 mol % MC3, about 10 mol % DSPC, about 38.5 mol % cholesterol, and about 1.5 mol % PEG-DMG was used as a basis for this study. Nanoparticle compositions including DSPC as a phospholipid, cholesterol as a structural lipid, PEG-DMG as a PEG lipid, an RNA, and a compound according to Formula (I), (IA), (II), (IIa), (IIb), (IIc), (IId) or (IIe) selected from Compounds 1-159, 168-170, and 173-175 were prepared according to or via methods similar to those described in Examples 1 and 2. The ratios of the lipids were 50:10:38.5:1.5 mol % for the lipid according to Formula (I), (IA), (II), (IIa), (IIb), (IIc), (IId) or (IIe):DSPC:cholesterol:PEG-DMG. The RNA used was an mRNA encoding G5 luciferase (Luc) or G5 hEPO. Tables 1A-1B summarize the content and characteristics of the formulations. […]

mice [3] = experiment: Luc expression (total flux) after intramuscular administration; format: in vivo; conditions: 6 hours after intramuscular administration, Luc mRNA and H10 mRNA
Method: The numbers 1-7 in this figure correspond to MC3, Compounds 168-170, and 173-175 respectively.
In order to monitor how effectively various nanoparticle compositions deliver therapeutic and/or prophylactics to targeted cells, different nanoparticle compositions including a particular therapeutic and/or prophylactic (for example, a modified or naturally occurring RNA such as an mRNA) are prepared and administered to rodent populations. Mice are intravenously, intramuscularly, intraarterially, or intratumorally administered a single dose including a nanoparticle composition with a formulation such as those provided in Example 3. In some instances, mice may be made to inhale doses. Dose sizes may range from 0.001 mg/kg to 10 mg/kg, where 10 mg/kg describes a dose including 10 mg of a therapeutic and/or prophylactic in a nanoparticle composition for each 1 kg of body mass of the mouse. A control composition including PBS may also be employed.
The total flux (measured by area under the curve, AUC) induced by administration of a formulation including a given lipid relative to that induced by administration of a formulation including MC3 was also measured for several lipids.
Sample formulations including both modified luciferase (Luc) mRNA and H10 mRNA were prepared and administered intramuscularly and the resulting expression and immunogenicity were evaluated simultaneously. Formulations including compounds according to Formula (I), (IA), (II), (IIa), (IIb), (IIc), (IId) or (IIe) were prepared and administered at doses of 0.001 and 0.01 mpk (e.g., doses of 0.0005 mpk of a formulation including Luc mRNA and a formulation including H10 mRNA or doses of 0.005 mpk of a formulation including Luc mRNA and a formulation including H10 mRNA).
Sample formulations including modified luciferase (Luc) mRNA prepared and administered intramuscularly and the resulting expression and immunogenicity were evaluated simultaneously. Formulations including compounds according to Formula (I), (IA), (II), (IIa), (IIb), (IIc), (IId) or (IIe) were prepared and administered at dose of […] 0.01 mpk.
The fluxes measured upon intravenous and intramuscular administration are compared in Table 6. Fluxes are presented as fold increase over that measured for MC3 formulations.

Row | SMILES | IL-6 (mice [1]) | Size (nm) [2] [nm] | IP-10 (mice [1]) | Total flux (p/s) 0.001 mpk Dose (mice [3]) [p/s] | Total flux (p/s) 0.01 mpk Dose (mice [3]) [p/s] | PDI [2]
1 | CCCCCCCCCOC(=O)CCCCCCCN(CCCCO)CCCCCCCC(=O)OC(CCCCCCCC)CCCCCCCC [Compound 20, Heptadecan-9-yl 8-((4-hydroxybutyl)(8-(nonyloxy)-8-oxooctyl)amino) octanoate] | 126.83 | 111.5 |  |  |  | 
2 | CCCCCCCCC(CCCCCCCC)OC(=O)CCCCCCCN(CCO)CCCCCCCC(=O)OCC1CC1CCCCCC (stereo not drawn) [Compound 28, Heptadecan-9-yl 8-((8-((2-hexylcyclopropyl)methoxy)-8-oxooctyl)(2-hydroxyethyl)amino)octanoate] |  |  | 283.13 | 6.73E+05 | 5.56E+06 | 
3 | CCCCCCCCC(CCCCCCCC)OC(=O)CCCCCCCN(CCO)CCCCCCCC(=O)OC(CCCCCCCC)CCCCCCCC [Compound 29, Di(heptadecan-9-yl) 8,8′-((2-hydroxyethyl)azanediyl)dioctanoate] | 69.54 |  | 1362.81 | 7.64E+05 | 1.12E+07 | 
4 | CCCC/C=C\CCC(CC/C=C\CCCC)OC(=O)CCCCCCCN(CCO)CCCCCC(=O)OCCCCCCCCCCC [Compound 61, (5Z,12Z)-heptadeca-5,12-dien-9-yl 8-((2-hydroxyethyl)(6-oxo-6-(undecyloxy)hexyl)amino)octanoate] |  | 89.1 |  |  |  | 0.11
5 | CCCCCCCCC(CC)OC(=O)CCCN(CCO)CCCCCCCC(=O)OC(CCCCCCCC)CCCCCCCC (stereo not drawn) [Compound 72, Heptadecan-9-yl 8-((2-hydroxyethyl)(4-oxo-4-(undecan-3-yloxy)butyl)amino)octanoate] |  | 65.4 |  |  |  | 0.11
6 | CCCCCCCCC(CC)OC(=O)CCCCCN(CCO)CCCCCCCC(=O)OC(CCCCCCCC)CCCCCCCC (stereo not drawn) [Compound 75, Heptadecan-9-yl 8-((2-hydroxyethyl)(6-oxo-6-(undecan-3-yloxy)hexyl)amino)octanoate] |  | 64.2 |  |  |  | 0.10
7 | CCCCCCCCCOC(=O)CCCCCCCN(CCCCCCCC(=O)OC(CCCCCCCC)CCCCCCCC)CCCNC(=O)N(C)C [Compound 110, Heptadecan-9-yl 8-((3-(3,3-dimethylureido)propyl)(8-(nonyloxy)-8-oxooctyl)amino)octanoate] |  | 118 |  |  |  | 0.13
8 | CCCCCCCCCOC(=O)CCCCCCCN(CCCCCCCC(=O)OC(CCCCCCCC)CCCCCCCC)CCCNC(=O)NC [Compound 112, Heptadecan-9-yl 8-((3-(3-methylureido)propyl)(8-(nonyloxy)-8-oxooctyl)amino)octanoate] |  | 85.7 |  |  |  | 0.12
9 | CCCCCCCCCOC(=O)CCCCCCCN(CCCCCCCC(=O)OC(CCCCCCCC)CCCCCCCC)CCCNC(=S)NC [Compound 113, Heptadecan-9-yl 8-((3-(3-methylthioureido)propyl)(8-(nonyloxy)-8-oxooctyl)amino)octanoate] |  | 69.2 |  |  |  | 0.15
10 | CCCCCCCCC(CCCCCCCC)OC(=O)CCCCCCCN(CCO)CCCCCC(=O)OC(CCCCCCCC)C1CC1 (stereo not drawn) [Compound 128, Heptadecan-9-yl 8-((6-((1-cyclopropylnonyl)oxy)-6-oxohexyl)(2-hydroxyethyl)amino)octanoate] |  | 69.4 |  |  |  | 0.14
11 | CCCCCCCCCCCCN(CCO)CCCCCCCCCCCC(=O)OC [Compound 137, Methyl 12-(dodecyl(2-hydroxyethyl)amino)dodecanoate] | 130.82 |  | 234.35 | 7.57E+04 | 8.09E+04 | 
12 | CCCCCCCCCOC(=O)CCCCCCCN(CCO)CCCCCCCC(=O)OCCCCCCCCC [Compound 138, Dinonyl 8,8′-((2-hydroxyethyl)azanediyl)dioctanoate] | 23.38 |  | 172.56 | 2.72E+05 | 1.19E+06 | 
13 | CCCCCCCC/C=C\COC(=O)CCCCCN(CCO)CCCCCC(=O)OC/C=C\CCCCCCCC [Compound 140, Di((Z)-undec-2-en-1-yl) 6,6′-((2-hydroxyethyl)azanediyl)dihexanoate] | 282.82 |  | 187.83 | 2.03E+05 | 6.09E+05 | 
14 | CCCCCCCCCOC(=O)CCCCCCCN(CCO)CCCCCCCC(=O)N(CCCCCCCC)CCCCCCCC [Compound 144, Nonyl 8-((8-(dioctylamino)-8-oxooctyl)(2-hydroxyethyl)amino)octanoate] | 319.46 |  | 4220.55 | 2.72E+06 | 2.18E+07 | 
